Test results: ChEMBL document CHEMBL5727981, “ASK1 inhibitor and preparation method and use thereof” (2020)

Target: T1, Mitogen-activated protein kinase kinase kinase 5 (Homo sapiens, UniProt Q99683)
T1 sequence (Q99683 whole entry): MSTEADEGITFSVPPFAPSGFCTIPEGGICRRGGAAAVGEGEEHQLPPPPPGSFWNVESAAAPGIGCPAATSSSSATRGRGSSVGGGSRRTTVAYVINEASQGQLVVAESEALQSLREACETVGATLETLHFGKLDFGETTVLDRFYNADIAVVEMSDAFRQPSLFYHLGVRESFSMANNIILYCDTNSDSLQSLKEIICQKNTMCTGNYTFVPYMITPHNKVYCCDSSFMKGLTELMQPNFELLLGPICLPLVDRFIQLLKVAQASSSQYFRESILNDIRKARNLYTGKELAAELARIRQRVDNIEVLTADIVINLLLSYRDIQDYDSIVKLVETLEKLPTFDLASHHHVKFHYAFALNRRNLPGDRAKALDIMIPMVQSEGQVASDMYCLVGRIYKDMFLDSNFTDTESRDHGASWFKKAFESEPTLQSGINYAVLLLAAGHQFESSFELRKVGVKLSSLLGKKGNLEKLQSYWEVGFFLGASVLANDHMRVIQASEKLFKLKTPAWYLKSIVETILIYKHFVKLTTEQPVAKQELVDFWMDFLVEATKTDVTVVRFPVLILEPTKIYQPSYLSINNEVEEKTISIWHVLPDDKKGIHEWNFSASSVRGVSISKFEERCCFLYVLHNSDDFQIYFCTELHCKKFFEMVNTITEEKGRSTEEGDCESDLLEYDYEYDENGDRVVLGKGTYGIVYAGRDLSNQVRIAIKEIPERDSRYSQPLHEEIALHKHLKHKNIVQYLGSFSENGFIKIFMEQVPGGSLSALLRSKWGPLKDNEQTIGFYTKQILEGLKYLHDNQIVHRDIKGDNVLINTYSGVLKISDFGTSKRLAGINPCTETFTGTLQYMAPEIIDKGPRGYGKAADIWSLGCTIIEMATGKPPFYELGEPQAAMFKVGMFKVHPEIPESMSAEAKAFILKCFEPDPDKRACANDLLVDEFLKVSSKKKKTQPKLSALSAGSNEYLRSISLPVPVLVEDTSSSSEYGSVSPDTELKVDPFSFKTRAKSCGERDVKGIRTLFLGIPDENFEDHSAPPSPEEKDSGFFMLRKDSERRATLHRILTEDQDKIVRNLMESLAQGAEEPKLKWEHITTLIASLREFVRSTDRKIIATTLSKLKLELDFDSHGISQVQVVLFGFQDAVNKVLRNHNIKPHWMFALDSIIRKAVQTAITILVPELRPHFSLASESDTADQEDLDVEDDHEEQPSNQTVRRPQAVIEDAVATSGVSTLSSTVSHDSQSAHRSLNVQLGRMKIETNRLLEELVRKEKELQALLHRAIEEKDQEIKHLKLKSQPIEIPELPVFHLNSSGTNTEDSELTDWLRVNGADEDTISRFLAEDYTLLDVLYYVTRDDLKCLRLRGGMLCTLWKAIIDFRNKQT
Test: In Vitro Enzyme Activity: Reagents:Base Reaction Buffer: 20 mM Hepes (pH 7.5), 10 mM MgCl2, 1 mM EGTA, 0.02% Brij35, 0.02 mg/ml BSA, 0.1 mM Na3VO4, 2 mM DTT, 1% DMSOCompound Treatment:The test compound was formulated into a 10 mM stock solution in DMSO, which was diluted into 10 concentrations in 3-fold degression, and placed in a 384-well plate (Cyclic Olefin Copolymer LDV Echo®).Kinase Name: ASK1/MAP3K5 (Invitrogen, Carlsbad, Calif.)Type: Recombinant Human Full Length Protein, GST-taggedFinal concentration of the enzyme: 20 nMSubstrate: Myelin basic protein, MBP (Active Motif, Carlsbad, Calif.)Final concentration of the substrate: 20 μMExperimental Operations:1. The substrate was dissolved in a freshly prepared base reaction buffer.2. A desired coenzyme was added to the above substrate solution.3. The kinase was added to the substrate solution and mixed slowly.4. The solution of the test compound in DMSO was added to the kinase reaction solution and incubated at room temperature for 20 minutes.5. 33P-ATP (specific activity of 10 μCi/μl) was added to the reaction solution to initiate the reaction.6. Incubated at room temperature for 2 hours.7. A small portion of the reactants was placed onto a P-81 ion exchange filter paper.8. The filter paper was washed three times with 0.75% phosphate buffer to wash off the unbound phosphate, and then the filter paper was dried.9. The radioactivity remaining on the filter paper was determined.10. Kinase activity data was expressed as the ratio of the kinase activity remaining in the test sample to the kinase activity in the vehicle (DMSO).

IC50 [nM]	SMILES
< 50	CCc1cn(-c2cc3c(=O)n(-c4cccc(-c5nncn5C(C)C)n4)cnc3cc2C)cn1
< 50	CC(C)n1cnnc1-c1cccc(N2CCc3cc(Cl)c(-n4cnc(C5CC5)c4)cc3C2=O)n1
< 50	CC(C)c1cc2ncn(-c3cccc(-c4nncn4C(C)C)n3)c(=O)c2cc1-n1cnc(C2CC2)c1
